{"source": "paper PMC12884772", "about": "“Macrophagic Sclerostin Loop2‐ApoER2 Interaction Required by Sclerostin for Cardiovascular Protective Action” (Advanced Science, 2025)", "key": {"[1]": {"system": "sclerostin loop2‐ApoER2 interaction", "assay": "BLI blockade of ApoER2 - sclerostin loop2 binding by pretreatment with ApoER2‐Pep", "conditions": "His‐ApoER2 on HIS1K biosensors, sclerostin loop2 pretreated with ApoER2‐Pep, Figure 6F, listed as ApoER2‐LA7", "description": "Biolayer interferometry (BLI) analysis was performed on the Biomolecular Interaction Analyzer (ForteBio, Octet RED96e). To determine the binding affinity between ApoER2 and sclerostin, the ApoER2 protein (R&D, 3520‐AR) was biotinylated using 10 mM EZ‐Link Sulfo‐NHS‐LC‐LC‐Biotin (Thermo Scientific, 21 343) in a molar ratio of 1:20 for 2 h at 4 °C. The Slide‐A‐Lyzer Dialysis Cassettes (Thermo Scientific, 66 382) were used for excess biotin removal.^[ [61] ^] […] (SA) tray biosensors (Sartorius, 18‐5019) were used to load biotin‐ApoER2 proteins. Biosensors were pre‐wet for 10 min using 200 µL PBS containing 0.02% Tween 20 (v/v) in a 96‐well plate. To determine the binding affinity between sclerostin loop2 and ApoER2‐LA7, anti‐penta‐HIS (HIS1K) biosensors (Sartorius, 18‐5102) were used to load His‐sclerostin loop2, the sclerostin loop2‐loaded biosensors were immersed in the ApoER2‐LA7 with different concentrations. […] Raw data were analyzed using Data Analysis Software (ForteBio, v8.1). All Kd values were calculated after deducting the non‐specific binding between the biosensors and the samples.^[ [62], [63] ^]"}, "[2]": {"system": "sclerostin loop2‐ApoER2 interaction", "assay": "ApoER2‐Pep blockade of sclerostin effects in ApoER2 overexpressing, LPS‐induced RAW 264.7 macrophages", "format": "cell-based, mouse", "description": "In ApoER2‐Pep‐mediated structure‐function studies in vitro, RAW 264.7 cells were divided into 4 groups (n = 3 per group), including (1) Control, (2) LPS, (3) Lrp8 + LPS + SOST, and (4) Lrp8 + LPS + SOST + ApoER2‐Pep. Cells in groups (3) and (4) were transfected with Lrp8 plasmids encoding ApoER2, while cells in groups (1) and (2) were kept untreated. 24 h later, cells in group (3) were treated with recombinant sclerostin (SOST, 1 µM), while cells in group (4) were treated with recombinant sclerostin (1 µM) and ApoER2‐Pep (2 µM) for 3 h. Then, cells in groups (2), (3), and (4) were treated with LPS (1 µg/mL) for 18 h. All groups of cells were collected for determining the mRNA expression levels of TNF‐α, MCP‐1, and IL‐10 by RT‐PCR. Cell mediums were collected for determining the protein expression/secretion levels of mouse TNF‐α, mouse MCP‐1, and mouse IL‐10 by ELISA.\nTotal RNA was extracted from cells following the protocols of Trizol reagent (Invitrogen, 15 596 026). Reverse‐transcription was performed to obtain cDNA using HiScript III RT SuperMix kit (Vazyme, R323), and RT‐PCR was accomplished using a HiScript III RT SuperMix kit (Vazyme, R323) in a QuantStudio 7 PRO System (Applied Biosystems). The relative gene expression levels were calculated using the 2^−ΔΔCt method with GAPDH as the reference gene.^[ [40] ^] The primers were as follows: mouse GAPDH (F: […], R: GGGGTCGTTGATGGCAAC), mouse NF‐κB (p65, F: […], R: […]), mouse TNF‐α (F: […], R: […]), mouse MCP‐1 (F: […], R: […]), mouse IL‐10 (F: […], R: […]), human GAPDH (F: […], R: […]), human TNF‐α (F: […], R: […]), human MCP‐1 (F: […], R: […]) and human IL‐10 (F: […], R: […])."}, "[3]": {"system": "sclerostin‐knockout macrophages (RAW264.7)", "assay": "Effect of ApoER2‐LA7 on LPS‐induced cytokine mRNA in sclerostin‐knockout macrophages (RAW264.7)", "format": "cell-based, mouse", "conditions": "sclerostin‐knockout RAW264.7, after LPS induction, n = 3; Figure S7C"}, "[4]": {"system": "SOST^ki.ApoE^−/− mice", "assay": "Aortic aneurysm, atherosclerosis and inflammatory responses in SOST^ki.ApoE^−/− mice with AngII infusion", "format": "in vivo, mouse", "conditions": "10 mg/kg/day subcutaneous, four weeks, versus veh and Rseq‐Pep groups, n = 12", "description": "(§1) Aortic aneurysm (AA), atherosclerosis, and inflammatory responses were induced in ApoE^−/− mice with AngII infusion as previously described.^[ [15] ^] In brief, osmotic minipumps (Model 1004, ALZET, Durect Corporation) were implanted into the subcutaneous space along the dorsal midline under anaesthesia on the right flank via an incision in the scapular region to deliver 1000 ng/kg/min of AngII (A9525, Sigma‐Aldrich) or vehicle in 3‐month‐old mice for four weeks.^[ [68] ^]\nFor AA evaluation, the aortas were perfused via the left ventricle with ice‐cold EDTA buffer (1 mM) and saline immediately after sacrifice. The aortas were then isolated from the fat and connective tissues under a Zeiss Stemi 305 stereomicroscope and then fixed in 4% PFA. The aorta with or without aneurysm formation was defined according to Daugherty's modified classification.^[ [45] ^] The incidence of AA was determined as follows: mouse number with aortic aneurysm/group mice*100%. The maximum ex vivo diameters of the aortic arch and suprarenal aorta were determined by ImageJ software. For atherosclerosis assessment, atherosclerotic plaque was quantified by measuring the surface area of the Oil Red O‐positive lesions on en face preparation of aortic arches.^[ [14] ^] Briefly, aortic arches were cut longitudinally and immersed in Oil Red O dye solution, followed by being rinsed with 75% ethanol. The ratio of atherosclerotic plaque area to total aortic arch area was quantified by colorimetric analysis using Image J software.^[ [13] ^]\n(§2) The serum levels of sclerostin were detected using the sclerostin ELISA kits (R&D, DSST00; Cloud‐Clone, SEC864Mu) in triplicate following the manufacturer's instructions.^[ [14] ^] The serum levels of pro‐inflammatory cytokine and chemokine were measured using TNF‐α ELISA kit (Thermo Fisher BMS607‐3) and MCP‐1 ELISA kit (Thermo Fisher, BMS6005) in triplicate following manufacturer's instructions.^[ [15], [45] ^] The serum levels of anti‐inflammatory cytokine were measured using IL‐10 ELISA kit (Jonlnbio JL20242‐96T) in triplicate following manufacturer's instructions.^[ [15], [45] ^]"}, "[5]": {"system": "sost^−/−.ApoE^−/− mice", "assay": "Inflammatory responses in sost^−/−.ApoE^−/− mice with AngII infusion (absence of sclerostin)", "format": "in vivo, mouse", "conditions": "10 mg/kg, n = 6, Figure S12F", "description": "as §1, §2\nFigure S12. […] (A) Serum stability of the modified ApoER2-Pep. […] All tests were two-sided. n = 6 per group. Data were expressed as mean ± standard deviation."}, "[6]": {"conditions": "LPS‐induced macrophages in vitro"}}, "data": [{"sequence": "PCRENEFQCGDGTCVLAIKRCNQERDCPDGSDEAGCL [ApoER2‐Pep]", "values": [{"measurement": "Binding of ApoER2 to sclerostin loop2 after pretreatment with the peptide", "setting": "[1]", "value": "blocked"}, {"measurement": "Effects of exogenous sclerostin on protein expression/secretion of TNF‐α, MCP‐1 and IL‐10 after pretreatment with the peptide", "setting": "[2]; ApoER2‐Pep 2 µM + sclerostin 1 µM for 3 h, LPS 1 µg/mL 18 h, ELISA, n = 3", "value": "significantly attenuated"}, {"measurement": "Effects of exogenous sclerostin on mRNA expression of TNF‐α, MCP‐1 and IL‐10 after pretreatment with the peptide", "setting": "[2]; ApoER2‐Pep 2 µM + sclerostin 1 µM for 3 h, LPS 1 µg/mL 18 h, RT‐PCR, n = 3", "value": "significantly attenuated"}, {"measurement": "Reversal of the promotive effect of sclerostin on IL‐10 mRNA expression", "setting": "[2]; [6]", "value": "complete reversal"}, {"measurement": "Reversal of the suppressive effect of sclerostin on MCP‐1 mRNA expression", "setting": "[2]; [6]", "value": "complete reversal"}, {"measurement": "Reversal of the suppressive effect of sclerostin on TNF‐α mRNA expression", "setting": "[2]; [6]", "value": "partial reversal"}, {"measurement": "mRNA expression levels of TNF‐α, MCP‐1 and IL‐10, with versus without the peptide", "setting": "[3]", "value": "no significant differences"}, {"measurement": "Serum level of IL‐10", "setting": "[4]; ELISA", "value": "significantly lower"}, {"measurement": "Serum level of MCP‐1", "setting": "[4]; ELISA", "value": "significantly higher"}, {"measurement": "Serum level of TNF‐α", "setting": "[4]; ELISA", "value": "significantly higher"}, {"measurement": "AA incidence", "setting": "[4]", "value": "significantly higher"}, {"measurement": "Maximum ex vivo diameters of aortic arches and suprarenal aortas", "setting": "[4]", "value": "significantly higher"}, {"measurement": "Ratio of atherosclerotic plaque in aortic arches", "setting": "[4]", "value": "significantly higher"}, {"measurement": "Effect on inflammatory responses (serum TNF‐α, MCP‐1, IL‐10) in the absence of sclerostin", "setting": "[5]", "value": "no effect"}]}]}
